US11078496B2, “System for F-box hormone receptor regulated protein expression in mammalian cells” (ICAHN SCHOOL OF MEDICINE AT MOUNT SINAI, priority 2016, dated 2021)
Read-outs that look alike come from different tables or passages of the source.

Tests used:
[1] = tested on: CCE A-CHK1 clone #2 cells; assay: Competition assay of A-CHK1 clone #2 cells against GFP-A CCE cells; type: cell-based, mouse; details: 50 μM IAA-treated A-CHK1 cells compared to the EtOH-treated controls
Description: FIGS. 6A-6E show CHK1 depletion under normal growth conditions in mESCs. FIG. 6A show images of cells assayed for alkaline phosphatase activity. CCE mESCs were infected with pRAIDRS GFP-A or A-CHK1 and selected in the presence of EtOH (“Con”) or auxin (“IAA”). After colonies emerged, cells were assayed for alkaline phosphatase activity. Left, low magnification scans. Right, bright-field microscope images. Scale bars, 100 μm. […] FIG. 6B are graphs showing populations doubling, following selection, of the indicated clones cultured in the presence of 0.01% EtOH (solid lines) or 50 μM IAA (dashed lines). Cells were counted and replated every 3-4 days and population doublings were calculated as Log2 (cell output/cell input). Experiment was conducted once for these clones. […] Cells were collected every 2-3 days and assayed for GFP and mCherry fluorescence by flow cytometry. The percentage of A-CHK1 cells was calculated for each time point and the values for the auxin-treated cells were normalized to those of EtOH-treated cells. An average growth rate decrease of 8% per day was calculated for auxin-treated A-CHK1 cells compared to the EtOH-treated controls. […] In FIG. 6E, the indicated clones were treated with 0.01% EtOH or 50 μM auxin (“IAA”) for 3 days and analyzed for the expression of self-renewal and differentiation markers by QRT-PCR. […]

[2] = tested on: AID-fused proteins in mammalian cells; details: cited from earlier work

Structure (SMILES): O=C(O)Cc1c[nH]c2ccccc12 [auxin, indole-3-acetic acid]
- average growth rate decrease [1]: 8 % per day
- rapidity of auxin-dependent protein depletion ([2]; reported by Han et al.): ~90 min
- rapidity of auxin-dependent protein depletion ([2]; reported by Holland et al.): 60 to 100 min
- rapidity of auxin-dependent protein depletion ([2]; reported by Lambrus et al.): 10 to 30 min
- rapidity of auxin-dependent protein depletion ([2]; reported by Rodriguez-Bravo et al.): > 120 min
